From ChEMBL document CHEMBL1146624, “Synthesis and evaluation of 4-anilino-6,7-dialkoxy-3-quinolinecarbonitriles as inhibitors of kinases of the Ras-MAPK signaling cascade” (Bioorg Med Chem Lett, 2003) come the findings set out here.

For one assay, the system named is Caco-2. The assay can be described thus: cells. The conditions noted are these: Homo sapiens.
Assay [1] has as its system LoVo. The assay can be described thus: cells. Conditions: Homo sapiens.
Assay [2] has as its target T1, Dual specificity mitogen-activated protein kinase kinase 1 (Homo sapiens, UniProt Q02750).
The target in assay [3] is Epidermal growth factor receptor (Homo sapiens, UniProt P00533).
Chain of Epidermal growth factor receptor (P00533 whole entry): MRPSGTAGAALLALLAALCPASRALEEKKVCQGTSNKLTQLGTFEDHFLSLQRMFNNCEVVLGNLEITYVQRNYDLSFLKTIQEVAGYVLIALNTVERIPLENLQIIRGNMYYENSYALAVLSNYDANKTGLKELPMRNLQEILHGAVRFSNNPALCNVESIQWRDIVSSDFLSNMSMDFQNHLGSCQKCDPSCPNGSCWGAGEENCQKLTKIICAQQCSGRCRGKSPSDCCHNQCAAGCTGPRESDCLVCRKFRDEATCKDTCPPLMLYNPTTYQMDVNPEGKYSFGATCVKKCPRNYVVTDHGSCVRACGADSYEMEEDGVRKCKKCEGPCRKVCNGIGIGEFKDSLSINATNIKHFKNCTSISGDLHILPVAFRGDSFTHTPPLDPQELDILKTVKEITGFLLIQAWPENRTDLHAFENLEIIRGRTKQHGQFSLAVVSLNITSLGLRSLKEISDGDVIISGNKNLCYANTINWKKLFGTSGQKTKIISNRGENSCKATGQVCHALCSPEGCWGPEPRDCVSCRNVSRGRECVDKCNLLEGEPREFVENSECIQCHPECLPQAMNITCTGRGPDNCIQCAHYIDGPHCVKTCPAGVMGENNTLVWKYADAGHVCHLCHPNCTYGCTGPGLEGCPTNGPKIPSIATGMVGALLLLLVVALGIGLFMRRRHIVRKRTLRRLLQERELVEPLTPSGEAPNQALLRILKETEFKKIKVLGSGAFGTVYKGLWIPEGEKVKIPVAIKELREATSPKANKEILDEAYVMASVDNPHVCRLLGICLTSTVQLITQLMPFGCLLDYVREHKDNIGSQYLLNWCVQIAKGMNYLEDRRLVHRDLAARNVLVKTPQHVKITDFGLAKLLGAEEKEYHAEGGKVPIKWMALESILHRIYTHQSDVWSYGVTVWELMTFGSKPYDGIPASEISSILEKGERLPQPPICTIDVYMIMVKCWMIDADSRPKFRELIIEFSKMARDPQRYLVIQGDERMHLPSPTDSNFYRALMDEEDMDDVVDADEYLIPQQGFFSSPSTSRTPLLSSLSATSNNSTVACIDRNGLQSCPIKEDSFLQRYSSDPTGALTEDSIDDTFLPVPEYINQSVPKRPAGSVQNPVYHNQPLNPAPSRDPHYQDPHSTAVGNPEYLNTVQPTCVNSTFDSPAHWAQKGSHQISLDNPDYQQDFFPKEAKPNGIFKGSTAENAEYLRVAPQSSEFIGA
Assay [4] has as its target Serine/threonine-protein kinase AKT (Homo sapiens, UniProt P31751+Q9Y243+P31749). The assay can be described thus: Inhibition of Akt phosphorylation in LoVo cells. Format: functional, cell-based.
The subject of assay [5] is LoVo. The assay is described as follows: Inhibition of tyrosine phosphorylation in LoVo cells. Format: functional, cell-based. Conditions: Homo sapiens.
Assay [6] has as its target T1, Dual specificity mitogen-activated protein kinase kinase 1. The assay is described as follows: Inhibition of MEK1 phosphorylation in LoVo cells. It counts as functional, cell-based.

T1 sequence (Q02750 whole entry): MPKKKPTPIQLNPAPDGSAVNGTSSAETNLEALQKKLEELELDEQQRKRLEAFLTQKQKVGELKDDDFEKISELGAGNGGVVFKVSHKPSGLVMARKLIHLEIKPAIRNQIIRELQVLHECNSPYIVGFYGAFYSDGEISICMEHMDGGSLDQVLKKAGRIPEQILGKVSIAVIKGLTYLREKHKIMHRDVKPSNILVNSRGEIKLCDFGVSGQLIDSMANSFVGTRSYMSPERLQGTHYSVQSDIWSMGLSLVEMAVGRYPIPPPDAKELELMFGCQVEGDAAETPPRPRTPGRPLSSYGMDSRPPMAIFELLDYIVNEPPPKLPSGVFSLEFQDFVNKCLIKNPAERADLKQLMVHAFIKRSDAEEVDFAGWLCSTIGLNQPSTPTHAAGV

As to `COc1cc2c(Nc3ccc(Sc4nc(C)c(C)n4C)c(Cl)c3)c(C#N)cnc2cc1OCCCN1CCOCC1`, the IC50 with Caco-2 worked out at 0.9 µM; in the assay with LoVo [1] it was 0.342 µM; in assay [2], 0.002 µM.

For `COc1cc2c(Nc3ccc(Sc4nccs4)c(Cl)c3)c(C#N)cnc2cc1OCCCN1CCOCC1`, the half-maximal inhibitory concentration (IC50) worked out at 2.7 µM in the assay on Caco-2, 0.056 µM with LoVo [1] and 0.009 µM in assay [2].

With `CCN1CCN(CCCOc2cc3ncc(C#N)c(Nc4ccc(Sc5nccn5C)c(Cl)c4)c3cc2OC)CC1`, the IC50 with Caco-2 is greater than 1 µM.

Regarding `COc1cc2c(Nc3ccc(Sc4nccn4C)c(Br)c3)c(C#N)cnc2cc1OCCCN1CCOCC1`, the IC50 in the assay with Caco-2 is 5.2 µM; in the assay with LoVo [1], 0.005 µM; in assay [2], 0.002 µM.

For the compound `COc1cc2c(Nc3ccc(Sc4nccn4C)c(Cl)c3)c(C#N)cnc2cc1OCCCN1CC[S+]([O-])CC1`, the IC50 in the assay on Caco-2 is greater than 1 µM; in the assay on LoVo [1], 0.036 µM; in assay [2], 0.002 µM.

As to `COc1cc2c(Nc3ccc(Sc4ncc(C)n4C)c(Cl)c3)c(C#N)cnc2cc1OCCCN1CCOCC1`, the IC50 was greater than 1 µM in the assay with Caco-2, 0.325 µM in the assay on LoVo [1] and 0.001 µM in assay [2].

In the case of `COc1cc2c(Nc3ccc(Sc4ccccn4)c(Cl)c3)c(C#N)cnc2cc1OCCCN1CCOCC1`, the concentration for half-maximal inhibition (IC50) in the assay on Caco-2 was greater than 1 µM; in the assay with LoVo [1], 0.2 µM; in assay [2], 0.008 µM.

Consider `COc1cc2c(Nc3ccc(Sc4nccn4C)c(Cl)c3)c(C#N)cnc2cc1OCCCN1CCOCC1`, for which the IC50 in the assay on Caco-2 is greater than 1 µM; in assay [3], greater than 1 µM; in assay [4], greater than 1 µM; in the assay on LoVo [5], greater than 1 µM; in assay [6] it was 0.008 µM; in the assay on LoVo [1] it was 0.005 µM. Moreover, in assay [2], the IC50 was 0.002 µM.

As for `COc1cc2c(Nc3ccc(Cc4nccn4C)c(Cl)c3)c(C#N)cnc2cc1OCCCN1CCOCC1`, the IC50 was 5.5 µM in the assay with Caco-2, 0.38 µM in the assay with LoVo [1] and 0.212 µM in assay [2].

For the compound `CCOc1cc2ncc(C#N)c(Nc3ccc(Sc4nccn4C)c(Cl)c3)c2cc1OCC`, the concentration for half-maximal inhibition (IC50) is greater than 1 µM with Caco-2, 0.007 µM in the assay on LoVo [1] and 0.01 µM in assay [2].

As to `COc1cc2c(Nc3ccc(Sc4nccn4C)c(C)c3)c(C#N)cnc2cc1OCCCN1CCOCC1`, the IC50 was determined as 3.2 µM in the assay on Caco-2 and 0.036 µM with LoVo [1].

As to `COc1cc2c(Nc3ccc(Sc4nccn4C)cc3)c(C#N)cnc2cc1OCCCN1CCOCC1`, the figures for the IC50 in the assay on Caco-2 and with LoVo [1] were 4.7 µM and 0.043 µM, respectively.

As for `COc1cc2c(Nc3ccc(Sc4nccn4C)c(Cl)c3)c(C#N)cnc2cc1OCCCN1CCCC1`, the IC50 with Caco-2 was greater than 1 µM; with LoVo [1], 0.01 µM; in assay [2] it was 0.004 µM.

For the compound `COc1cc2c(Nc3ccc(Oc4ccccc4)cc3)c(C#N)cnc2cc1OCCCN1CCOCC1`, the IC50 with Caco-2 was 5.5 µM; in assay [3], greater than 1 µM; in assay [4] it was greater than 1 µM; in the assay on LoVo [5] it was greater than 1 µM; in assay [6], greater than 1 µM; with LoVo [1], 0.4 µM. In addition, in assay [2], the IC50 worked out at 0.004 µM.

On to `O=C(NOCC1CC1)c1ccc(F)c(F)c1Nc1ccc(I)cc1Cl` [CI-1040], for which the IC50 in the assay on Caco-2 was greater than 1 µM; in the assay with LoVo [1], 0.131 µM.

Usually IC50 stands for the concentration that gives 50% inhibition. A low value points to greater potency in that assay.
